Assays:
CEM cells = assay: Cytotoxicity, CEM human T-lymphocytes; details: for IC50: Homo sapiens, CCRF-CEM, read-out: CEM cells IC50; for TIL1210 (CEM cells): IC50 T-lymphocytes (CEM)/IC50 L1210; for TIP388 (CEM cells): IC50 T-lymphocytes (CEM)/IC50 P388; for TIht (CEM cells): IC50 T-lymphocytes (CEM)/IC50 human tumors
human tumors = assay: Cytotoxicity, human tumor cell line panel (approximately 55 lines); details: for IC50: read-out: human tumors IC50, mean graph midpoint, approximately 55 cell lines, hydrobromide salts used for 4a, 11a-e
P388 cells = assay: Cytotoxicity, murine P388 leukemic cells (P388 D1); details: for IC50: read-out: P388 cells IC50
L1210 cells = assay: Cytotoxicity, murine L1210 leukemic cells; assay type: cell-based; details: Mus musculus, mean
Molt 4/C8 cells = assay: Cytotoxicity, Molt 4/C8 human T-lymphocytes; details: for TIL1210 (Molt 4/C8 cells): IC50 T-lymphocytes (Molt 4/C8)/IC50 L1210; for TIP388 (Molt 4/C8 cells): IC50 T-lymphocytes (Molt 4/C8)/IC50 P388; for TIht (Molt 4/C8 cells): IC50 T-lymphocytes (Molt 4/C8)/IC50 human tumors; for IC50: read-out: Molt 4/C8 cells IC50

`CCN(CC)CCC(=O)/C=C/c1ccccc1` [Compound 1a] was tested, and the IC50 (CEM cells) was 33.9 µM, the “TIL1210 (CEM cells)” value (CEM cells) was 1.32 and the “TIP388 (CEM cells)” value (CEM cells) was 19.92. For the same compound, the “TIht (CEM cells)” value (CEM cells) was 3.47, the “Selective toxicity towards leukemia” value (human tumors; human tumor screen) was “this property was also noted” and the IC50 (human tumors) was 9.77 µM. The IC50 (P388 cells) was 1.7 µM, the IC50 (L1210 cells) was 25.7 µM and the “TIL1210 (Molt 4/C8 cells)” value (Molt 4/C8 cells) was 1.66. For the same compound, the “TIP388 (Molt 4/C8 cells)” value (Molt 4/C8 cells) was 25.04, the “TIht (Molt 4/C8 cells)” value (Molt 4/C8 cells) was 4.36 and the IC50 (Molt 4/C8 cells) was 42.6 µM.

For `CCN(CC)CCC(=O)/C=C/c1ccc(Cl)cc1` [Compound 1b], the IC50 (CEM cells) was 53.3 µM, the “TIL1210 (CEM cells)” value (CEM cells) was 1.30 and the “TIP388 (CEM cells)” value (CEM cells) was 177.6. For the same compound, the “potency relative to melphalan, P388” value (P388 cells) was “more than half the potency of melphalan”, the IC50 (P388 cells) was 0.3 µM and the IC50 (L1210 cells) was 41 µM. The “TIL1210 (Molt 4/C8 cells)” value (Molt 4/C8 cells) was 0.98, the “TIP388 (Molt 4/C8 cells)” value (Molt 4/C8 cells) was 134.6 and the IC50 (Molt 4/C8 cells) was 40.4 µM.

For `CCN(CC)CCC(=O)/C=C/c1ccc(Cl)c(Cl)c1` [Compound 1c], the IC50 (CEM cells) was 55.8 µM, the “TIL1210 (CEM cells)” value (CEM cells) was 0.91 and the “TIP388 (CEM cells)” value (CEM cells) was 143.2. The “TIht (CEM cells)” value (CEM cells) was 14.70, the IC50 (human tumors) was 3.8 µM and the “potency relative to melphalan, P388” value (P388 cells) was “more than half the potency of melphalan”. For the same compound, the IC50 (P388 cells) was 0.39 µM, the IC50 (L1210 cells) was 61.2 µM and the “TIL1210 (Molt 4/C8 cells)” value (Molt 4/C8 cells) was 0.74. The “TIP388 (Molt 4/C8 cells)” value (Molt 4/C8 cells) was 116.5, the “TIht (Molt 4/C8 cells)” value (Molt 4/C8 cells) was 11.96 and the IC50 (Molt 4/C8 cells) was 45.4 µM.

With `CCN(CC)CCC(=O)/C=C/c1ccc(C)cc1` [Compound 1d] the IC50 (CEM cells) was 48.6 µM, the “TIL1210 (CEM cells)” value (CEM cells) was 0.92 and the “TIP388 (CEM cells)” value (CEM cells) was 44.19. The IC50 (P388 cells) was 1.1 µM, the IC50 (L1210 cells) was 52.9 µM and the “TIL1210 (Molt 4/C8 cells)” value (Molt 4/C8 cells) was 1.05. For the same compound, the “TIP388 (Molt 4/C8 cells)” value (Molt 4/C8 cells) was 50.65 and the IC50 (Molt 4/C8 cells) was 55.7 µM.

In the case of `CCN(CC)CCC(=O)/C=C/c1ccc(OC)cc1` [Compound 1e], the IC50 (CEM cells) is reported as 48.6 µM, the “TIL1210 (CEM cells)” value (CEM cells) is reported as 1.10 and the “TIP388 (CEM cells)” value (CEM cells) is reported as 72.55. The IC50 (P388 cells) was 0.67 µM, the IC50 (L1210 cells) was 44.3 µM and the “TIL1210 (Molt 4/C8 cells)” value (Molt 4/C8 cells) was 1.17. The “TIP388 (Molt 4/C8 cells)” value (Molt 4/C8 cells) was 77.69 and the IC50 (Molt 4/C8 cells) was 52.1 µM.

With `CCN(CC)CCC(=O)c1ccccc1` [Compound 4a] the IC50 (CEM cells) was 38.5 µM, the “TIL1210 (CEM cells)” value (CEM cells) was 1.90 and the “TIP388 (CEM cells)” value (CEM cells) was 14.81. The “TIht (CEM cells)” value (CEM cells) was 1.53, the IC50 (human tumors) was 25.1 µM and the IC50 (P388 cells) was 2.6 µM. The IC50 (L1210 cells) was 20.3 µM, the “TIL1210 (Molt 4/C8 cells)” value (Molt 4/C8 cells) was 0.86 and the “TIP388 (Molt 4/C8 cells)” value (Molt 4/C8 cells) was 6.68. The “TIht (Molt 4/C8 cells)” value (Molt 4/C8 cells) was 0.69 and the IC50 (Molt 4/C8 cells) was 17.4 µM.

For `CCN(CC)CCC(=O)c1ccc(Cl)cc1` [Compound 4b], the IC50 (CEM cells) was 40 µM, the “TIL1210 (CEM cells)” value (CEM cells) was 1.08 and the “TIP388 (CEM cells)” value (CEM cells) was 12.50. The IC50 (P388 cells) was 3.2 µM, the IC50 (L1210 cells) was 36.9 µM and the “TIL1210 (Molt 4/C8 cells)” value (Molt 4/C8 cells) was 0.62. The “TIP388 (Molt 4/C8 cells)” value (Molt 4/C8 cells) was 7.13 and the IC50 (Molt 4/C8 cells) was 22.8 µM.

`CCN(CC)CCC(=O)c1ccc(Cl)c(Cl)c1` [Compound 4c] was tested, and the “potency relative to melphalan, P388” value (P388 cells) was “more than half the potency of melphalan”.

With `CCN(CC)CCC(=O)c1ccc(C)cc1` [Compound 4d] the IC50 (CEM cells) was 64.1 µM, the “TIL1210 (CEM cells)” value (CEM cells) was 2.98 and the “TIP388 (CEM cells)” value (CEM cells) was 29.15. The “TIht (CEM cells)” value (CEM cells) was 2.44, the IC50 (human tumors) was 26.3 µM and the IC50 (P388 cells) was 2.2 µM. For the same compound, the IC50 (L1210 cells) was 21.5 µM, the “TIL1210 (Molt 4/C8 cells)” value (Molt 4/C8 cells) was 2.96 and the “TIP388 (Molt 4/C8 cells)” value (Molt 4/C8 cells) was 28.97. The “TIht (Molt 4/C8 cells)” value (Molt 4/C8 cells) was 2.42 and the IC50 (Molt 4/C8 cells) was 63.7 µM.

In the case of `O=C(/C=C/c1ccccc1)CCN1CCN(CCC(=O)/C=C/c2ccccc2)CC1` [Compound 8a], the IC50 (CEM cells) is reported as 5.55 µM, the “TIL1210 (CEM cells)” value (CEM cells) is reported as 0.96 and the “TIP388 (CEM cells)” value (CEM cells) is reported as 3.95. The “TIht (CEM cells)” value (CEM cells) was 0.46, the IC50 (human tumors) was 12 µM and the IC50 (P388 cells) was 0.62 µM. The IC50 (L1210 cells) was 5.78 µM, the “TIL1210 (Molt 4/C8 cells)” value (Molt 4/C8 cells) was 0.95 and the “TIP388 (Molt 4/C8 cells)” value (Molt 4/C8 cells) was 8.89. The “TIht (Molt 4/C8 cells)” value (Molt 4/C8 cells) was 0.46 and the IC50 (Molt 4/C8 cells) was 5.51 ± 2.73 µM.

For `O=C(CCN1CCN(CCC(=O)c2ccccc2)CC1)c1ccccc1` [Compound 8b], the IC50 (CEM cells) was 16 µM, the “TIL1210 (CEM cells)” value (CEM cells) was 1.65 and the “TIP388 (CEM cells)” value (CEM cells) was 5.64. For the same compound, the IC50 (P388 cells) was 2.84 µM, the IC50 (L1210 cells) was 9.71 µM and the “TIL1210 (Molt 4/C8 cells)” value (Molt 4/C8 cells) was 2.69. The “TIP388 (Molt 4/C8 cells)” value (Molt 4/C8 cells) was 9.20 and the IC50 (Molt 4/C8 cells) was 26.1 µM.

In the case of `CCN1CCC(O)(/C=C/c2ccccc2)C(C(=O)/C=C/c2ccccc2)C1` (centres unmarked) [Compound 9a], the IC50 (CEM cells) is reported as 16.5 µM, the “TIL1210 (CEM cells)” value (CEM cells) is reported as 3.12 and the “TIP388 (CEM cells)” value (CEM cells) is reported as 11.81. For the same compound, the “TIht (CEM cells)” value (CEM cells) was 6.02, the IC50 (human tumors) was 2.75 µM and the IC50 (P388 cells) was 1.4 µM. The IC50 (L1210 cells) was 5.3 µM, the “TIL1210 (Molt 4/C8 cells)” value (Molt 4/C8 cells) was 5.64 and the “TIP388 (Molt 4/C8 cells)” value (Molt 4/C8 cells) was 21.36. For the same compound, the “TIht (Molt 4/C8 cells)” value (Molt 4/C8 cells) was 10.88 and the IC50 (Molt 4/C8 cells) was 29.9 µM.

In the case of `CCN1CCC(O)(/C=C/c2ccc(Cl)c(Cl)c2)C(C(=O)/C=C/c2ccc(Cl)c(Cl)c2)C1` (centres unmarked) [Compound 9c], the IC50 (human tumors) is reported as 0.38 µM, the “potency relative to melphalan, P388” value (P388 cells) is reported as “more than half the potency of melphalan” and the IC50 (P388 cells) is reported as 0.4 µM.

From patent US6017933A, “Mannich bases of conjugated styryl ketones” (University of Saskatchewan Technologies Inc., priority 1999, dated 2000)
